Values after ≈ are worked out from the molar mass of the structure shown.
Conditions: buffer; pH 7.4; 200.0 µM
Work on CC(=O)N(C)c1ccc(NC(=S)NC(=O)/C=C/c2ccco2)cc1 yielded a solubility kinetic of 11.6 µg/mL (≈ 33.8 µM). In the case of S=C(NCc1ccccc1)N1CCN(c2ccccc2)CC1, the solubility kinetic was 0.5 µg/mL (≈ 1.61 µM). CCOC(=O)C1(CC2CC2)CCN(Cc2cnc(N(C)C)s2)CC1 showed a solubility kinetic of 46.1 µg/mL (≈ 131 µM). COc1ccccc1OCC(=O)Nc1ccc2c(c1)n(C)c(=O)n2C gave a solubility kinetic of over 51.2 µg/mL. Work on CN(c1ccccc1)S(=O)(=O)c1cccc(NC(=O)CSc2nccc(=O)[nH]2)c1 yielded a solubility kinetic of over 64.6 µg/mL. With CN(C(=O)C(Cl)Cl)C1CC2C=CC1C2 (configuration not stated) the solubility kinetic was 30.7 µg/mL (≈ 131 µM). O=C(Nc1cc(-c2ccccc2)cs1)c1ccco1 showed a solubility kinetic of 4.7 µg/mL (≈ 17.5 µM). For CCc1ccc(N2C(=O)CC(N3CCN(c4ccccn4)CC3)C2=O)cc1 (configuration not stated), the solubility kinetic was over 54.7 µg/mL. In the case of O=CC(Cl)P(=O)(N1CCOCC1)N1CCOCC1 (configuration not stated), the solubility kinetic was 32.5 µg/mL (≈ 110 µM). Work on C=CCNC(=S)NCc1ccccc1 yielded a solubility kinetic of over 30.9 µg/mL. Molecule Cc1cc(C)cc(NC(=O)[C@@H](NC(=O)c2ccco2)C(C)C)c1 has a solubility kinetic of 2.8 µg/mL (≈ 8.91 µM). COc1ccccc1NC(=O)C1(c2ccccc2)CCCC1 showed a solubility kinetic of 7.9 µg/mL (≈ 26.7 µM). With O=C(Nc1sc2c(c1C(=O)O)CCC2)C(=O)N1CCOCC1 the solubility kinetic was over 48.7 µg/mL. For O=C1N=c2ccccc2=C1c1sc(=S)n(-c2ccc(O)cc2)c1O, the solubility kinetic was 0.8 µg/mL (≈ 2.26 µM). CC(=O)N1CCN(C(=O)c2ccc(Cl)c(S(=O)(=O)N3CC(C)OC(C)C3)c2)CC1 (configuration not stated) showed a solubility kinetic of over 66.6 µg/mL. In the case of COc1cccc(C(=O)OCC(=O)N2CCc3ccccc3C2)c1, the solubility kinetic was 46.1 µg/mL (≈ 142 µM). Molecule OCc1cc(Br)ccc1OCc1nc2ccccc2s1 has a solubility kinetic of under 0.8 µg/mL. With O=C(Nc1ccc(Br)cc1)NC1CCCCCCC1 the solubility kinetic was under 0.3 µg/mL. Work on COc1ccc(CCN2C(=O)CC(C(N)=O)SC2=Nc2ccccc2)cc1 (configuration not stated) yielded a solubility kinetic of 44.5 µg/mL (≈ 116 µM). COC(=O)c1cc(C(=O)NCC2CCCCC2)cc([N+](=O)[O-])c1 showed a solubility kinetic of 33.3 µg/mL (≈ 104 µM). COc1ccc(NC(=O)Cc2c(Cl)cccc2Cl)cn1 gave a solubility kinetic of 6.2 µg/mL (≈ 19.9 µM). For Cc1cc(C)nc(Nc2nc3ccccc3o2)n1, the solubility kinetic was over 36 µg/mL. For CCC(=O)c1ccc(Oc2nc3c(c(=O)n(C)c(=O)n3C)n2CC)cc1, the solubility kinetic was 19.6 µg/mL (≈ 55 µM). In the case of CCOC(=O)Cc1ccc(NC(=O)c2cccc([N+](=O)[O-])c2)cc1, the solubility kinetic was 2.6 µg/mL (≈ 7.92 µM). CC(NCc1ccc2c(c1)OCO2)c1ccccc1.Cl (configuration not stated) gave a solubility kinetic of 41 µg/mL. O=C(O)c1ccc(Cn2cc(/C=C\[N+](=O)[O-])c3ccccc32)o1 gave a solubility kinetic of over 46.8 µg/mL. Work on CCOC(=O)C1CCN(C(=O)COC(=O)CNC(=O)c2ccc(C(C)(C)C)cc2)CC1 yielded a solubility kinetic of over 64.9 µg/mL. With Cc1cc(C)nc(NC(=O)NC(=O)c2ccccc2)n1 the solubility kinetic was over 40.5 µg/mL. For O=C1CCCC2=C1C(c1cccs1)CC(=O)N2c1ccc(F)cc1 (configuration not stated), the solubility kinetic was 40.7 µg/mL (≈ 119 µM). For COc1ccc(NC(=O)c2oc3ccccc3c2CSC)cc1S(=O)(=O)N1CCOCC1, the solubility kinetic was 3.8 µg/mL (≈ 7.97 µM). In the case of N#CC(C(=O)c1ccccc1Cl)=C1SCCCS1, the solubility kinetic was 9.4 µg/mL (≈ 31.8 µM). NC(=O)c1ccsc1NC(=O)CCc1ccccc1 gave a solubility kinetic of 37.4 µg/mL (≈ 136 µM). Molecule Cc1nc(C)c(-c2csc(Nc3ccc(S(N)(=O)=O)cc3)n2)s1 has a solubility kinetic of 0.3 µg/mL (≈ 0.819 µM). Work on COc1ccc(NC(=O)CSc2ccc3c(c2)OCCO3)cc1S(N)(=O)=O yielded a solubility kinetic of over 61.6 µg/mL. Molecule Cc1ccc(OCCCCCN2CCOCC2)cc1 has a solubility kinetic of 32.3 µg/mL (≈ 123 µM). In the case of COc1ccc(NC(=O)Nc2c(C)noc2-c2ccccc2)cc1, the solubility kinetic was 7.5 µg/mL (≈ 23.2 µM). For C=CCn1c(CCC)nc2ccccc21, the solubility kinetic was over 30 µg/mL. In the case of Cc1cc(=O)n2c(-c3ccc(Cl)cc3)csc2n1, the solubility kinetic was 7.9 µg/mL (≈ 28.5 µM). CC(=O)NCC1COc2ccccc2O1 (configuration not stated) showed a solubility kinetic of over 31.1 µg/mL. In the case of CCOc1ccc(N2CC(C(=O)NC3CCCC3)CC2=O)cc1 (configuration not stated), the solubility kinetic was over 47.5 µg/mL. For COc1ccccc1CNC(=O)COC(=O)Cn1cnc2ccccc21, the solubility kinetic was 38.3 µg/mL (≈ 108 µM). Molecule Cc1cc(C)c2nc(Cl)c(Cl)nc2c1 has a solubility kinetic of 2.7 µg/mL (≈ 11.9 µM). Work on Cc1ccc(C(C)NC(=O)c2ccc3c(c2)OCO3)cc1C (configuration not stated) yielded a solubility kinetic of 39.4 µg/mL (≈ 133 µM). Molecule O=C(COC(=O)COc1ccccc1)Nc1ncc(Cl)cc1Cl has a solubility kinetic of 47 µg/mL (≈ 132 µM). For O=C(NCCN1CCCCC1)Nc1ccccc1Cl, the solubility kinetic was over 42.3 µg/mL. With CN(Cc1ccccc1F)c1ncnc2sccc12 the solubility kinetic was 33.7 µg/mL (≈ 123 µM). Work on COc1nc(-c2ccc(Cl)cc2Cl)nc2ccccc12 yielded a solubility kinetic of under 0.3 µg/mL. With NCc1oc(-c2ccccc2)cc1C(=O)O the solubility kinetic was 22.2 µg/mL (≈ 102 µM). In the case of O=C(CSc1nccc(=O)[nH]1)N1CCOCC1, the solubility kinetic was over 38.3 µg/mL. COCCCn1c(=O)c2sccc2n(Cc2cccc(C)c2)c1=O showed a solubility kinetic of 15.1 µg/mL (≈ 43.8 µM). COc1ccc(S(=O)(=O)N2CCOCC2)cc1NC(=O)COC(=O)c1ccc([N+](=O)[O-])s1 showed a solubility kinetic of 14 µg/mL (≈ 28.8 µM). Work on O=C(O)c1cc(S(=O)(=O)NCCOc2ccccc2)ccc1Cl yielded a solubility kinetic of over 53.4 µg/mL. Cc1ccc(OCCn2ccnc2)c([N+](=O)[O-])c1 showed a solubility kinetic of 26.8 µg/mL (≈ 108 µM). COc1ccc(N2CCN(C(=O)c3cc4ccccc4o3)CC2)cc1 showed a solubility kinetic of under 0.4 µg/mL. CCOC(=O)C1=C(N)Oc2cc(O)ccc2C1c1ccccc1 (configuration not stated) showed a solubility kinetic of under 0.7 µg/mL. With Nc1ccccc1OCCOc1ccccc1N the solubility kinetic was over 36.6 µg/mL. In the case of N#Cc1ccc(CSc2nc(N)cc(=O)[nH]2)cc1, the solubility kinetic was over 38.7 µg/mL. In the case of Cc1onc(-c2c(F)cccc2Cl)c1C(=O)c1ccc(F)cc1, the solubility kinetic was 9.1 µg/mL (≈ 27.3 µM). Fc1ccccc1-c1nc(-c2cnccc2C(F)(F)F)no1 showed a solubility kinetic of 8 µg/mL (≈ 25.9 µM). For COc1cccc(CC(=O)Nc2nc(-c3ccc(F)c(F)c3)cs2)c1, the solubility kinetic was 0.5 µg/mL (≈ 1.39 µM). In the case of COc1ccc(CCNC(=O)COC(=O)Cc2c[nH]c3ccccc23)cc1OC, the solubility kinetic was 47 µg/mL (≈ 119 µM). For O=S(=O)(Cc1cc(-c2ccccc2Cl)no1)c1ccccc1, the solubility kinetic was 1.8 µg/mL (≈ 5.39 µM). Molecule Cc1cccc(C)c1NC(=O)CNC(=O)C1CCCC1 has a solubility kinetic of over 41.2 µg/mL. COC(=O)c1ccc(C(=O)OC)c(NC(=S)N2CCCC2)c1 showed a solubility kinetic of 9.6 µg/mL (≈ 29.8 µM). Molecule Cc1ccc(-n2c(C)nc3ccccc3c2=O)c(C)c1 has a solubility kinetic of over 39.6 µg/mL. O=C(NC1CCS(=O)(=O)C1)c1cccs1 (configuration not stated) gave a solubility kinetic of over 36.8 µg/mL. With O=C(Nc1ncccn1)C1CCCCC1 the solubility kinetic was over 30.8 µg/mL. With O=C(Nc1ccccn1)c1sc2cccc(F)c2c1Cl the solubility kinetic was under 0.3 µg/mL. Molecule CCCCCC(=O)NC(=S)Nc1ccc2oc(=O)ccc2c1 has a solubility kinetic of 1.5 µg/mL (≈ 4.71 µM). CCCOc1c(Cl)cc(C(=O)NC)cc1OC gave a solubility kinetic of over 38.7 µg/mL. COC(=O)C1=C(O)/C(=C/c2cccc(OC)c2O)N=C1C showed a solubility kinetic of 35.1 µg/mL (≈ 121 µM). With COc1ccc(CC(=O)OC(C)C(=O)Nc2ccc(S(N)(=O)=O)cc2)cc1 (configuration not stated) the solubility kinetic was over 58.9 µg/mL. With COC(=O)/C(C#N)=C/c1c(Oc2cc(C)cc(C)c2)nc2ccccn2c1=O the solubility kinetic was 1.7 µg/mL (≈ 4.53 µM). COc1cc(NC(=O)C(Cc2ccccc2)n2cccc2)cc(OC)c1 (configuration not stated) gave a solubility kinetic of 16.3 µg/mL (≈ 46.5 µM). In the case of COc1ccccc1OCCNC(=O)CCS(=O)(=O)c1ccccc1, the solubility kinetic was over 54.5 µg/mL. Cc1ccc(OCCNC(=O)c2ccccc2F)cc1 showed a solubility kinetic of 36.5 µg/mL (≈ 134 µM). Work on O/N=C/c1ccnc(SCc2ccc(Cl)cc2)n1 yielded a solubility kinetic of 1.2 µg/mL (≈ 4.29 µM). COc1ccc(C(=O)c2ccc(-c3ccc(OC)cc3)nc2)cc1 showed a solubility kinetic of under 0.7 µg/mL. With O=c1c2ccccc2sn1-c1nccs1 the solubility kinetic was 1.4 µg/mL (≈ 5.98 µM). CCOc1cc(/C=C2\SC(=O)N(c3ccc(O)cc3)C2=O)ccc1O showed a solubility kinetic of 4 µg/mL (≈ 11.2 µM). Work on C/C(=C\C(=O)c1ncc(C(F)(F)F)cc1Cl)N(C)C yielded a solubility kinetic of 41 µg/mL (≈ 140 µM). With c1ccc2nc(-c3nccs3)ccc2c1 the solubility kinetic was 10.3 µg/mL (≈ 48.5 µM). In the case of CCOc1ccc(NC(=S)Nc2cccnc2)cc1, the solubility kinetic was 33.3 µg/mL (≈ 122 µM). Cc1cccc2sc(NC(=O)CCn3cccc3)nc12 showed a solubility kinetic of 5.7 µg/mL (≈ 20 µM). NC1=NC(=O)/C(=C\c2ccsc2)S1 gave a solubility kinetic of 28.6 µg/mL (≈ 136 µM). Molecule Cc1ccc(NC(=O)c2nc3nccc(C)n3n2)c(C)c1 has a solubility kinetic of over 42.2 µg/mL. CC1CN(CC(=O)NCc2ccccc2)CC(C)O1 (configuration not stated) showed a solubility kinetic of 36.1 µg/mL (≈ 138 µM).
